# In patent publication US8686050B2, “Diglycidic ether derivative therapeutics and methods for their use” (British Columbia Cancer Agency Branch, priority 2008, dated 2014):
# “Also recorded” adds a separate entry of the source. Where a name gives a salt, the structure may show the parent alone.
# Columns and labels:
# [1] = target: T1, glucocorticoid receptor (GR) (Homo sapiens, UniProt P04150); assay: GRE-luciferase reporter, steroid receptor specificity; type: cell-based; conditions: LNCaP cells transfected with GR, steroid 10 nM; 185-9-2 5 μg/ml
# T1 construct: Cells were co-transfected with expression plasmids for full-length hGR, PRβ and the relative reporter; expressed in transfected cells; host or cells: LNCaP
# T1 sequence (P04150 1-777): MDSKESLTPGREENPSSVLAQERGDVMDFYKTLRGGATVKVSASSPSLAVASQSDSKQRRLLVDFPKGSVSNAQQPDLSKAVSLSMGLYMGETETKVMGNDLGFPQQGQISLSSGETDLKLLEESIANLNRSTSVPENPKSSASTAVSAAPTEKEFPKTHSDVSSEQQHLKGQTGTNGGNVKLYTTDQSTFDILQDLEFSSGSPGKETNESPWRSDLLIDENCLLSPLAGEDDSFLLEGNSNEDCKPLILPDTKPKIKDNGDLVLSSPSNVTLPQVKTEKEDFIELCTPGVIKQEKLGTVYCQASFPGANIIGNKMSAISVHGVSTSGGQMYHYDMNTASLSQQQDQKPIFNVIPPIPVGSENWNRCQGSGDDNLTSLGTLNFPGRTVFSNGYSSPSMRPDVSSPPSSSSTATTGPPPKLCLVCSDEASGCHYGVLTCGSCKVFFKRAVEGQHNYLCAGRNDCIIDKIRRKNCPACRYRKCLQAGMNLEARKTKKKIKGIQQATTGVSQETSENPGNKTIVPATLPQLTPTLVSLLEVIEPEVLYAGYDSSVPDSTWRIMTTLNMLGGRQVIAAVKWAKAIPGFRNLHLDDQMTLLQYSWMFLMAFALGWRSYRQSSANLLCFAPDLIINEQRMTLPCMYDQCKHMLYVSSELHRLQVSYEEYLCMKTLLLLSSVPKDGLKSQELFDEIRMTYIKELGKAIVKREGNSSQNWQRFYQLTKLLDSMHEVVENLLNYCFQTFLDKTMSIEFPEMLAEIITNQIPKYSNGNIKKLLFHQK
# Protocol: Sequence similarities of amino acids in the AR with related human steroid receptors PR and glucocorticoid receptor (GR) are significant in some domains such as the DBD. The AR NTD shares less than 15% homology with the PR and GR, but these receptors interact with some of the same proteins (eg., SRC-1 and CBP). […] Cells were co-transfected with expression plasmids for full-length hGR, PRβ and the relative reporter (i.e., pGR-Luc or PRE-E1b-Luc reporters). Cells were then treated with ethanol vehicle, dexamethasone (GR), 4-pregnene-3,20 dione (progesterone) (PR) followed by measurement of luciferase activity. […] Some antiandrogens currently used in the clinic have progestational and glucocorticoidal activities. In adult males, the role of the PR activity is unclear.
# [2] = General toxicity in xenograft-bearing mice (behavior, body weight, organ histology)
# Protocol: For routine histology, major organs and xenografts were harvested upon completion of the experiment and were fixed in 10% neutral buffered formalin and then embedded in paraffin. Fixed sections were cut and stained with H&E. To determine possible effects of compounds on the proliferation rates and apoptosis in xenografts, Ki-67 immunostaining and the TUNEL assay was performed. […] Levels of AR were determined by immunohistochemistry or Western blot analysis.
# LNCaP human prostate cancer cells express endogenous androgen receptor (AR) and prostate-specific antigen (PSA), and progress to androgen independence in castrated hosts. LNCaP cells (10^6/ml) were implanted subcutaneously into NOD-SCID male mice that were at least 8 weeks in age. The cells were suspended in 75 μl of RPMI medium 1640 (5% FBS) with 75 μl of Matrigel and injected into the flank region of the host under anesthesia. […] A total of five doses were given to the animal. Tumor volume and body weight were measured every 5 days.
# IHC data was prepared by a commercial lab that was blinded to treatments.
# PC3 cells were implanted subcutaneously into NOD-SCID male mice. […] Animals were treated every 5 days with a subcutaneous dose of 20 mg/kg body weight of PNG01-185-017-9-2 or matching volume of vehicle (control, DMSO). Tumor volume and body weight were measured every 5 days.
# AR = target: T2, AR (Homo sapiens, UniProt P10275, T878A); assay: Nuclear translocation of AR in LNCaP cells (fractionation, fluorescence microscopy); type: cell-based; set-up: LNCaP cells express endogenous AR and secrete prostate-specific antigen (PSA); endogenous in cells; host or cells: LNCaP
# T2 sequence (P10275 1-920 T878A): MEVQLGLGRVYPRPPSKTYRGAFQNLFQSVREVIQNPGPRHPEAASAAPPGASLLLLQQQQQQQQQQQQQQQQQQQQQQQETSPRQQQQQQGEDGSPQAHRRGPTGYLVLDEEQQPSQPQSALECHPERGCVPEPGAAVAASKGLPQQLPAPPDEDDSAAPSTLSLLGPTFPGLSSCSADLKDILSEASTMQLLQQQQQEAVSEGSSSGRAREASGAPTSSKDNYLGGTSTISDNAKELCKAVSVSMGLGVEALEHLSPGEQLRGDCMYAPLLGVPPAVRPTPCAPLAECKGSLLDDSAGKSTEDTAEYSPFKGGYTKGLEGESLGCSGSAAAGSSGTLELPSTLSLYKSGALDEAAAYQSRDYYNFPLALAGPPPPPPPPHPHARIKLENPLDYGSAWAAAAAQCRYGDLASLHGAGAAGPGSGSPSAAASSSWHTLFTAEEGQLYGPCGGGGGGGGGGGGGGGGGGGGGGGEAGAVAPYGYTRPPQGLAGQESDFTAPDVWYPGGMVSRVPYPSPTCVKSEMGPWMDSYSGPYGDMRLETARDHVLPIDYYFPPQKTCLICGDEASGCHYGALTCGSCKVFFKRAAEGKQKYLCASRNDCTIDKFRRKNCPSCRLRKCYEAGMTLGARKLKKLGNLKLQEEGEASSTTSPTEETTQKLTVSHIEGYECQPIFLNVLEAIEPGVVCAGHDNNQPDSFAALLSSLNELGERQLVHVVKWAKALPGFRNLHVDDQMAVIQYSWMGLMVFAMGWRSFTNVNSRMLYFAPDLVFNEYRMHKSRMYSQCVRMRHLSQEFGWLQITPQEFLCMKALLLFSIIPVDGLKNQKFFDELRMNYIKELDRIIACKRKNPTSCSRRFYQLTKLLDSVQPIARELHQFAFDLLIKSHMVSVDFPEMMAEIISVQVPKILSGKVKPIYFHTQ
compound,measurement,setting,value
"CC(C)(c1ccc(OCC(O)CO)cc1)c1ccc(OCC(O)CCl)cc1 (stereo not shown) [185-9-2, BADGE.HCL.H2O]",GRE-luciferase activity in response to ligand,[1],did NOT inhibit; also recorded: does NOT inhibit
same,"body weight, LNCaP xenograft mice, intravenous",[2]; I.V. 50 mg/kg every other day,did not reduce body weight
same,"body weight, LNCaP xenograft mice, intratumoral",[2]; day 0 versus day 25,did not reduce body weight
same,"pathology review of lung, heart, liver, spleen, and kidney","[2]; i.v. 50 mg/kg every other day, 5 injections, H&E",showed no signs of toxicity
same,general toxicity indicated by animal behavior or body weight,"[2]; mouse, in vivo, iv",not to cause general toxicity
same,nuclear translocation of the AR in the absence of androgen,AR; compound on its own,did not cause nuclear translocation of the AR
same,nuclear translocation of AR protein in response to androgen,"AR; pretreated 1 hr, 10 nM DHT",nor did it prevent nuclear translocation of AR protein
